Test results from patent US6355657B1, “System for percutaneous delivery of opioid analgesics” (Atrix Laboratories, Inc., priority 1998, dated 2002).
Several values for one entry are separate records, joined by “and”; a condition that tells them apart may be missing. Identical values can stand only once. Counter-ions that a name gives are not always drawn. Like-named read-outs stand apart in the source and are kept apart here.

How the values were obtained:
[1] = cited from earlier work
[2] = Solubility of loperamide hydrochloride in the receptor solution (spiked receptor solutions); assay type: physicochemical; settings: 10% (v/v) N-methyl-2-pyrrolidone in water
Excerpt: The receptor solution was 10% (v/v) N-methyl-2-pyrrolidone in water.

[3] = Solubility of loperamide hydrochloride in solvents and solvent mixtures (titration to cloud point, HPLC of saturated solutions); assay type: physicochemical
Description: The solubility studies of loperamide hydrochloride were initiated using the formulation systems shown in Table I through multiple titrations confirmned by HPLC analysis of saturated solutions. For systems having at least 5% loperamide hydrochloride solubility, the transport of loperamide hydrochloride across the skin was characterized by 500 μL and 20 μL dosing of excised human cadaver skin using a Franz in vitro skin diffusion cell.
Solvent systems were mixed according to weight. For combinations of solvents that were single phase, loperamide hydrochloride was added in 0.1% increments until the system clouded. This was taken as the approximate saturation value for loperamide hydrochloride in that system. The system was then allowed to remain undisturbed for at least 24 hours. Often large crystals of loperamide hydrochloride would form upon standing. This solution was then filtered, appropriately diluted and assayed according to the HPLC method described below.

## CN(C)C(=O)C(CCN1CCC(O)(c2ccc(Cl)cc2)CC1)(c1ccccc1)c1ccccc1 [loperamide hydrochloride, 4-(p-chlorophenyl)-4-hydroxy-N,N-dimethyl-α,(α-diphenyl-1-piperidinebutyramide hydrochloride]
[1]; 2-butanone
  solubility: 0.18 grams per 100 mL solvent
[1]; 2-propanol
  solubility: 1.11 grams per 100 mL solvent
[1]; 4-methyl-2-pentanone
  solubility: 0.020 grams per 100 mL solvent
[1]; N,N-dimethylformamide
  solubility: 10.3 grams per 100 mL solvent
[1]; acetone
  solubility: 0.20 grams per 100 mL solvent
[1]; citrate-phosphate buffer (pH 6.1)
  solubility: 0.008 grams per 100 mL solvent
[1]; citrate-phosphate buffer (pH 7.9)
  solubility: less than 0.001 grams per 100 mL solvent
[1]; dichloromethane
  solubility: 35.1 grams per 100 mL solvent
[1]; diethyl ether
  solubility: less than 0.001 grams per 100 mL solvent
[1]; dimethylsulfoxide
  solubility: 20.5 grams per 100 mL solvent
[1]; ethanol
  solubility: 5.37 grams per 100 mL solvent
[1]; ethyl acetate
  solubility: 0.035 grams per 100 mL solvent
[1]; hexane
  solubility: less than 0.001 grams per 100 mL solvent
[1]; methanol
  solubility: 28.6 grams per 100 mL solvent
[1]; polyethylene glycol 400
  solubility: 1.40 grams per 100 mL solvent
[1]; propylene glycol
  solubility: 5.64 grams per 100 mL solvent
[1]; tetrahydrofuran
  solubility: 0.32 grams per 100 mL solvent
[1]; toluene
  solubility: 0.001 grams per 100 mL solvent
[1]; water (at physiological pH)
  solubility: 0.002 grams per 100 mL solvent
[1]; water (pH 1.7)
  solubility: 0.14 grams per 100 mL solvent
[2]
  solubility of loperamide hydrochloride in receptor solution: greater than 380 ppm
[3]; 1:1:1 propylene glycol:ethanol:ethyl acetate
  loperamide hydrochloride solubility: greater than 5 % (w/w)
[3]; 1:1:4:3 N-methyl-2-pyrrolidone:propylene glycol:alcohol:water
  loperamide hydrochloride solubility: greater than 6 % (w/w)
[3]; 1:1:4:5 N-methyl-2-pyrrolidone:ethyl acetate:ethanol:water
  loperamide hydrochloride solubility: greater than 5 % (w/w)
[3]; 10% (v/v) water, 18% (v/v) N-methyl-2-pyrrolidone and 72% (v/v) ethanol ternary blend (FIG. 4)
  loperamide hydrochloride solubility: 19 % (w/w)
[3]; 60/40 propylene glycol/ethyl acetate solvent blend (FIG. 2)
  loperamide hydrochloride solubility: 18 % (w/w)
[3]; combination of propylene carbonate and ethanol, ratio not stated (FIG. 1)
  loperamide hydrochloride solubility: exceeded 20 % (w/w)
[3]; formulations of mixtures of water, alcohols and organic solvents, ambient temperatures
  loperamide hydrochloride in solution: up to 30 % (w/w)
[3]; most non-aqueous organic solvents (exceptions NMP, propylene glycol, ethanol)
  loperamide hydrochloride solubility: less than 1 % (w/w)
[3]; solvent Ethanol, hydrochloride
  Loperamide hydrochloride Solubility (w/w): 10 % (w/w)
[3]; solvent Isopropyl Myristate
  Loperamide hydrochloride Solubility (w/w): 0.001% (w/w)
[3]; solvent N-methyl-2-pyrrolidone, hydrochloride
  Loperamide hydrochloride Solubility (w/w): 16 % (w/w)
[3]; solvent Propylene Glycol, hydrochloride
  Loperamide hydrochloride Solubility (w/w): 9 % (w/w) and 8 % (w/w)
[3]; the solvents of Table 1 except N-methyl-2-pyrrolidone, ethanol and propylene glycol
  loperamide hydrochloride solubility: ≤ 0.5 % (w/w)
